Measured values taken from patent US20250270209A1 (INTERLINE THERAPEUTICS, INC., priority 2022, published 2025).

Legend:
LRRK2 wild type enzyme = LRRK2 wild type enzyme (Homo sapiens, UniProt Q5S007); assay: Biochemical Assay: LRRK2 TR-FRET (LanthaScreen) kinase assay with LRRKtide substrate; conditions: LRRK2 Inhibition, Table 8
Summary of the method: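 Human wild-type LRRK2 (3 nM) preincubated 15 min with compound (11-point, 3-fold, top 10 μM), then reacted 120 min at 23 °C with 400 nM LRRKtide and 25 μM ATP, pH 8.0. Stopped with EDTA; Tb-anti-pLRRKtide TR-FRET read after 30 min.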

[1] = target: T1, wild type LRRK2 overexpressed in recombinant HEK-293T cells (Homo sapiens, UniProt Q5S007); assay: pS935 LRRK2 Cell Assay (HTRF, phospho-LRRK2 Ser935); assay type: cell-based; conditions: LRRK2 Inhibition, Table 8, 2 hours compound incubation
T1 construct: host or cells: HEK293T (transient transfection with pCMV-LRRK2 WT plasmid)
T1 sequence (Q5S007 whole entry): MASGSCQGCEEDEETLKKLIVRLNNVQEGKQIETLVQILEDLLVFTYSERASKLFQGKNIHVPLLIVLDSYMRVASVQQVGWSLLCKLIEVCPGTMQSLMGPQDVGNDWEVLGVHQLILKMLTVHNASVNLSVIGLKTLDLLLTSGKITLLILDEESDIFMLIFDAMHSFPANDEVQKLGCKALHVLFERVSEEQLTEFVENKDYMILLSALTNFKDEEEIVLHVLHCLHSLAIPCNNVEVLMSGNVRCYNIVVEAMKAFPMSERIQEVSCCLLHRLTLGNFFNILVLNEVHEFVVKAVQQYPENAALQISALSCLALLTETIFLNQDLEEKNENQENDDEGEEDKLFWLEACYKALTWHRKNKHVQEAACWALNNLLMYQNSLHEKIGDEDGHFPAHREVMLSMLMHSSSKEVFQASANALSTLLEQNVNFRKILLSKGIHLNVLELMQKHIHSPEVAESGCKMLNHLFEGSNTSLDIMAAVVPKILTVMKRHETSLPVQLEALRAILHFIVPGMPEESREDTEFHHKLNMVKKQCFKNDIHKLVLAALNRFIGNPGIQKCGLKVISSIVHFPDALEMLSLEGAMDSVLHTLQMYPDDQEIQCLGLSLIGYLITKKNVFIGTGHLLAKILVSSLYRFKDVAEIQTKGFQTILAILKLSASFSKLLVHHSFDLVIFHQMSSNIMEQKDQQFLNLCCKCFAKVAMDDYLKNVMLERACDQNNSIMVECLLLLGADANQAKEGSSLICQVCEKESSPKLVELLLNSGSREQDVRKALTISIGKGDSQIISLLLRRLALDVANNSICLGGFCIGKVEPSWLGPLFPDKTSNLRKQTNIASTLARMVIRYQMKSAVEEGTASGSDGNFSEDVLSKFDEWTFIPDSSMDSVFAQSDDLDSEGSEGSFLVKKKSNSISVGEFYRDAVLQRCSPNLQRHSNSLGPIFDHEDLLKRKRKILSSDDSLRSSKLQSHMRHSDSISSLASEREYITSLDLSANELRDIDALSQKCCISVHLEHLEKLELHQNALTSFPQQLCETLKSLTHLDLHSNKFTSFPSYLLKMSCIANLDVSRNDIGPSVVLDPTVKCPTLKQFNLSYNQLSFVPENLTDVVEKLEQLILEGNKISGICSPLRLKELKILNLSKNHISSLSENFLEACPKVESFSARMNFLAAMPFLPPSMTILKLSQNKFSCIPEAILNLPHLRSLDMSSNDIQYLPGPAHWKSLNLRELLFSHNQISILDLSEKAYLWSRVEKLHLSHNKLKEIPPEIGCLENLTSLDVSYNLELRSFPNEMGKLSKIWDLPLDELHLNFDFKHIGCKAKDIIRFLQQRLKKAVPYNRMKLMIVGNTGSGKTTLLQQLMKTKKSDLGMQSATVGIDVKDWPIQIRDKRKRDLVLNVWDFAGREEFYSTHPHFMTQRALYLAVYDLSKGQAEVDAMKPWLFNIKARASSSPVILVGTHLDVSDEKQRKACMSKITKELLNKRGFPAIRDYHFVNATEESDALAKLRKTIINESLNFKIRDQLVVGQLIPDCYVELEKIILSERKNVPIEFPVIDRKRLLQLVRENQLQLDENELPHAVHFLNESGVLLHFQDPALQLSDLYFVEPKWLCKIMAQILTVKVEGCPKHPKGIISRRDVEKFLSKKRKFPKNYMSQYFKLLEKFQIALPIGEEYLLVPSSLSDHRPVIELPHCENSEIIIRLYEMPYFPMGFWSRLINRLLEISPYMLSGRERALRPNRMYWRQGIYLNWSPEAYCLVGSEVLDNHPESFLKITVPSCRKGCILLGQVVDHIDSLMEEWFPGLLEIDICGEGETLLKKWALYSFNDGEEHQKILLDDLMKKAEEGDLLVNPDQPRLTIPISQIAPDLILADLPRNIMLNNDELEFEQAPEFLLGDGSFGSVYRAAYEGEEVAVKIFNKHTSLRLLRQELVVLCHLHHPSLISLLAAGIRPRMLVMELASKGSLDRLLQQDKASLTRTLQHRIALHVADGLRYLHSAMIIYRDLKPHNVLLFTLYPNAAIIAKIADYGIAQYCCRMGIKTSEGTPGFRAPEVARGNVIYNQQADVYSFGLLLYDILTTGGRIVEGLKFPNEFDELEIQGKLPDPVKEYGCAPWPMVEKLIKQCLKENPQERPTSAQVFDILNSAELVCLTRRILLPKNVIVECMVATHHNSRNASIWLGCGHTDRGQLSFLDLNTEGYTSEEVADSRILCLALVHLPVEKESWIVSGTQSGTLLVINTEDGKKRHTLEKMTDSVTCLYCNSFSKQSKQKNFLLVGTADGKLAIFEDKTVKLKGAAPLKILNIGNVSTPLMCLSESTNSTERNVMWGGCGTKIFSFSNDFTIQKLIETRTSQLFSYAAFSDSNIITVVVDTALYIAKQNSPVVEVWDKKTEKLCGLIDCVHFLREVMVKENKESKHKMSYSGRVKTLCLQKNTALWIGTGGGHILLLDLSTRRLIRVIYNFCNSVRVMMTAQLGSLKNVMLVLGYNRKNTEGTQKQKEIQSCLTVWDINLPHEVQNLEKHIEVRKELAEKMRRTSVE
Summary of the method: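 HEK-293T cells transiently transfected with wild-type LRRK2 for 24 h, plated overnight, then treated 2 h at 37° C with compound (top 10 μM, 3-fold, 9 doses, duplicates, 0.2% DMSO). Lysates probed overnight at 23° C by sandwich HTRF for pSer935; 665/615 nm ratio read.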

LRRK2 wild type enzyme, sequence (Q5S007 whole entry): as above

SMILES	IC50 (LRRK2 wild type enzyme)	IC50 [1]
COc1nc(C)nc(C)c1NC(=O)Cc1nc2cnc3ccc(C#N)cc3c2n1[C@@H]1CCO[C@H](C)C1 [Compound 203, N-(4-methoxy-2,6-dimethyl-5-pyrimidinyl){3-[(2R,4R)-2-methyltetrahydro-2H-pyran-4-yl]-12-cyano-3,5,8-triazatricyclo[7.4.0.0^2,6]trideca-1,4,6,8,10,12-hexaen-4-yl}acetamide]	0.338 nM	136 nM
C[C@@H]1C[C@H](n2c(CC(=O)Nc3cnccc3C#N)nc3cnc4ccc(C#N)cc4c32)CCO1 [Compound 271, N-(4-cyano-3-pyridyl){3-[(2R,4R)-2-methyltetrahydro-2H-pyran-4-yl]-12-cyano-3,5,8-triazatricyclo[7.4.0.0^2,6]trideca-1,4,6,8,10,12-hexaen-4-yl}acetamide]	0.643 nM	8.43 nM
C[C@@H]1C[C@H](n2c(CC(=O)Nc3cnn(C)c(=O)c3)nc3cnc4ccc(Cl)cc4c32)CCO1 [Compound 206, N-(1-methyl-6-oxo-1,6-dihydro-4-pyridazinyl){3-[(2R,4R)-2-methyltetrahydro-2H-pyran-4-yl]-12-chloro-3,5,8-triazatricyclo[7.4.0.0^2,6]trideca-1,4,6,8,10,12-hexaen-4-yl}acetamide]	0.48 nM	8.37 nM
C[C@@H]1C[C@H](n2c(C3CC(=O)N([C@H]4CCOC4)C3)nc3cnc4ccc(C#N)cc4c32)CCO1 (stereo partly drawn) [Compound 45, 1-[(2R,4R)-2-methyloxan-4-yl]-2-{5-oxo-1-[(3S)-oxolan-3-yl]pyrrolidin-3-yl}-1H-imidazo[4,5-c]quinoline-8-carbonitrile]	3.24 nM	550 nM
Cc1noc(CNC(=O)Cc2nc3cnc4ccc(C#N)cc4c3n2[C@@H]2CCO[C@H](C)C2)n1 [Compound 279, N-[(3-methyl-1,2,4-oxadiazol-5-yl)methyl]{3-[(2R,4R)-2-methyltetrahydro-2H-pyran-4-yl]-12-cyano-3,5,8-triazatricyclo[7.4.0.0^2,6]trideca-1(9),2(6),4,7,10,12-hexaen-4-yl}acetamide]	0.776 nM	86.3 nM
C[C@@H]1C[C@H](n2c(C3CC(=O)N(CC4CC4)C3)nc3cnc4ccc(C#N)cc4c32)CCO1 (mixture of isomers) [Compound 69, 2-[(3RS)-1-(cyclopropylmethyl)-5-oxopyrrolidin-3-yl]-1-[(2R,4R)-2-methyloxan-4-yl]-1H-imidazo[4,5-c]quinoline-8-carbonitrile]	2.28 nM	182 nM
C[C@@H]1C[C@H](n2c(CC(=O)NC[C@@H]3CCCO3)nc3cnc4ccc(C#N)cc4c32)CCO1 [Compound 154, 2-{8-cyano-1-[(2R,4R)-2-methyloxan-4-yl]-1H-imidazo[4,5-c]quinolin-2-yl}-N-{[(2S)-oxolan-2-yl]methyl}acetamide]	0.674 nM	39.2 nM
CC(C)n1cc(NC(=O)Cc2nc3cnc4ccc(C#N)cc4c3n2[C@@H]2CCO[C@H](C)C2)cn1 [Compound 306, N-(1-isopropyl-4-pyrazolyl){3-[(2R,4R)-2-methyltetrahydro-2H-pyran-4-yl]-12-cyano-3,5,8-triazatricyclo[7.4.0.0^2,6]trideca-1(13),2(6),4,7,9,11-hexaen-4-yl}acetamide]	0.721 nM	16 nM
C[C@@H]1C[C@H](n2c(C3CC(=O)N(Cc4ccccn4)C3)nc3cnc4ccc(C#N)cc4c32)CCO1 (mixture of isomers) [Compound 61, 1-[(2R,4R)-2-methyloxan-4-yl]-2-{5-oxo-1-[(pyridin-2-yl)methyl]pyrrolidin-3-yl}-1H-imidazo[4,5-c]quinoline-8-carbonitrile]	1.09 nM	89.2 nM
C[C@@H]1C[C@H](n2c(C3CC(=O)N(C)C3)nc3cnc4ccc(C#N)cc4c32)CCO1 (mixture of isomers) [Compound 53, 2-[(3RS)-1-methyl-5-oxopyrrolidin-3-yl]-1-[(2R,4R)-2-methyloxan-4-yl]-1H-imidazo[4,5-c]quinoline-8-carbonitrile]	3.16 nM	666 nM
